Measured values: patent US9695155B2, “Herbicidal substituted pyrimidinyloxy benzene compounds” (E. I. DU PONT DE NEMOURS AND COMPANY, priority 2013, dated 2017)

Legend:
barnyardgrass [1] = assay: Test A preemergence; assay type: in vivo, Echinochloa crus-galli; conditions: for Barnyardgrass plant response rating: 500 g ai/ha
Outline: (§1)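 Compounds in non-phytotoxic solvent with surfactant applied as soil spray preemergence, or postemergence to plants 2-10 cm at one- to two-leaf stage, in loam/sand. After approximately 10 days in greenhouse, injury rated visually versus untreated controls, 0 (no effect) to 100 (complete control).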

large (Lg) crabgrass [2] = assay: Test A preemergence; assay type: in vivo, Digitaria sanguinalis; conditions: for Crabgrass, Large plant response rating: 500 g ai/ha
Outline: as §1

giant foxtail [3] = assay: Test A preemergence; assay type: in vivo, Setaria faberii; conditions: for Foxtail, Giant plant response rating: 500 g ai/ha
Outline: as §1

morningglory [4] = assay: Test A preemergence; assay type: in vivo, Ipomoea spp.; conditions: for Morningglory plant response rating: 500 g ai/ha
Outline: as §1

pigweed [5] = assay: Test A preemergence; assay type: in vivo, Amaranthus retroflexus; conditions: for Pigweed plant response rating: 500 g ai/ha
Outline: as §1

velvetleaf [6] = assay: Test A preemergence; assay type: in vivo, Abutilon theophrasti; conditions: for Velvetleaf plant response rating: 500 g ai/ha
Outline: as §1

wheat [7] = assay: Test A preemergence; assay type: in vivo, Triticum aestivum; conditions: for Wheat plant response rating: 500 g ai/ha
Outline: as §1

corn [8] = assay: Test A preemergence; assay type: in vivo, Zea mays; conditions: for Corn plant response rating: 500 g ai/ha
Outline: as §1

barnyardgrass [9] = assay: Test A postemergence; assay type: in vivo, Echinochloa crus-galli
Outline: as §1

large (Lg) crabgrass [10] = assay: Test A postemergence; assay type: in vivo, Digitaria sanguinalis
Outline: as §1

giant foxtail [11] = assay: Test A postemergence; assay type: in vivo, Setaria faberii
Outline: as §1

morningglory [12] = assay: Test A postemergence; assay type: in vivo, Ipomoea spp.
Outline: as §1

pigweed [13] = assay: Test A postemergence; assay type: in vivo, Amaranthus retroflexus
Outline: as §1

velvetleaf [14] = assay: Test A postemergence; assay type: in vivo, Abutilon theophrasti
Outline: as §1

wheat [15] = assay: Test A postemergence; assay type: in vivo, Triticum aestivum
Outline: as §1

corn [16] = assay: Test A postemergence; assay type: in vivo, Zea mays
Outline: as §1

rice = assay: Test B flooded paddy test; assay type: in vivo, Oryza sativa; conditions: Flood, 250 g ai/ha; 0 to 100 scale where 0 is no effect and 100 is complete control
Outline: (§2)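 Seedlings are raised to two leaves, flooded to a depth of 3 cm and dosed by adding the compound to the floodwater. Water level is kept constant, and plants are scored visually versus controls 13–15 days later (0 = no effect, 100 = complete control).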

sedge, umbrella = assay: Test B flooded paddy test; assay type: in vivo, Cyperus difformis; conditions: Flood, 250 g ai/ha; 0 to 100 scale where 0 is no effect and 100 is complete control
Outline: as §2

Heteranthera limosa = assay: Test B flooded paddy test; assay type: in vivo; conditions: Flood, 250 g ai/ha; 0 to 100 scale where 0 is no effect and 100 is complete control
Outline: as §2

barnyardgrass [17] = assay: Test B flooded paddy test; assay type: in vivo, Echinochloa crus-galli; conditions: Flood, 250 g ai/ha; 0 to 100 scale where 0 is no effect and 100 is complete control
Outline: as §2

[18] = 125 g ai/ha, 0 to 100 scale where 0 is no effect and 100 is complete control
[19] = 0 to 100 scale, 0 no effect, 100 complete control, approx. 10 days
[20] = 500 g ai/ha, 0 to 100 scale, 0 no effect, 100 complete control
[21] = 0 to 100 scale where 0 is no effect and 100 is complete control
[22] = 500 g ai/ha, 0 to 100 scale where 0 is no effect and 100 is complete control

O=[N+]([O-])c1cccc(Oc2ncc(Cl)cn2)c1-n1cc(Br)cn1 [Compound 63]
Plant response rating, Barnyardgrass (barnyardgrass [1]; [18]): 0 | Barnyardgrass plant response rating (barnyardgrass [1]; [19]): 70 | Plant response rating, Crabgrass, Large (large (Lg) crabgrass [2]; [18]): 80 | Crabgrass, Large plant response rating (large (Lg) crabgrass [2]; [19]): 100 | Plant response rating, Foxtail, Giant (giant foxtail [3]; [18]): 20 | Foxtail, Giant plant response rating (giant foxtail [3]; [19]): 100 | Plant response rating, Morningglory (morningglory [4]; [18]): 0 | Morningglory plant response rating (morningglory [4]; [19]): 0 | Plant response rating, Pigweed (pigweed [5]; [18]): 90 | Pigweed plant response rating (pigweed [5]; [19]): 100 | Plant response rating, Velvetleaf (velvetleaf [6]; [18]): 0 | Velvetleaf plant response rating (velvetleaf [6]; [19]): 20 | Plant response rating, Wheat (wheat [7]; [18]): 0 | Wheat plant response rating (wheat [7]; [19]): 0 | Plant response rating, Corn (corn [8]; [18]): 0 | Corn plant response rating (corn [8]; [19]): 0 | Plant response rating, Barnyardgrass (barnyardgrass [9]; [18]): 30 | Plant response rating, Barnyardgrass (barnyardgrass [9]; [20]): 70 | Plant response rating, Crabgrass, Large (large (Lg) crabgrass [10]; [18]): 30 | Plant response rating, Crabgrass, Large (large (Lg) crabgrass [10]; [20]): 90 | Plant response rating, Foxtail, Giant (giant foxtail [11]; [18]): 20 | Plant response rating, Foxtail, Giant (giant foxtail [11]; [20]): 80 | Plant response rating, Morningglory (morningglory [12]; [18]): 30 | Plant response rating, Morningglory (morningglory [12]; [20]): 80 | Plant response rating, Pigweed (pigweed [13]; [18]): 70 | Plant response rating, Pigweed (pigweed [13]; [20]): 100 | Plant response rating, Velvetleaf (velvetleaf [14]; [18]): 60 | Plant response rating, Velvetleaf (velvetleaf [14]; [20]): 100 | Plant response rating, Wheat (wheat [15]; [18]): 0 | Plant response rating, Wheat (wheat [15]; [20]): 10 | Plant response rating, Corn (corn [16]; [18]): 0 | Plant response rating, Corn (corn [16]; [20]): 30 | Plant response rating, Rice (rice): 0 | Plant response rating, Sedge, Umbrella (sedge, umbrella): 0 | Plant response rating, Ducksalad (Heteranthera limosa): 0 | Plant response rating, Barnyardgrass (barnyardgrass [17]): 0

FC(F)c1cccc(Oc2ncc(Cl)cn2)c1-n1cc(Cl)cn1 [Compound 209]
Barnyardgrass plant response rating (0 to 100 scale, 0 is no effect, 100 is complete control) (barnyardgrass [1]; 125 g ai/ha): 60 | Barnyardgrass plant response rating (barnyardgrass [1]; [21]): 100 | Crabgrass, Large plant response rating (0 to 100 scale) (large (Lg) crabgrass [2]; 125 g ai/ha): 100 | Crabgrass, Large plant response rating (large (Lg) crabgrass [2]; [21]): 100 | Foxtail, Giant plant response rating (0 to 100 scale) (giant foxtail [3]; 125 g ai/ha): 100 | Foxtail, Giant plant response rating (giant foxtail [3]; [21]): 100 | Morningglory plant response rating (0 to 100 scale) (morningglory [4]; 125 g ai/ha): 10 | Morningglory plant response rating (morningglory [4]; [21]): 70 | Pigweed plant response rating (0 to 100 scale) (pigweed [5]; 125 g ai/ha): 100 | Pigweed plant response rating (pigweed [5]; [21]): 100 | Velvetleaf plant response rating (0 to 100 scale) (velvetleaf [6]; 125 g ai/ha): 90 | Velvetleaf plant response rating (velvetleaf [6]; [21]): 90 | Wheat plant response rating (0 to 100 scale) (wheat [7]; 125 g ai/ha): 0 | Wheat plant response rating (wheat [7]; [21]): 20 | Corn plant response rating (0 to 100 scale) (corn [8]; 125 g ai/ha): 0 | Corn plant response rating (corn [8]; [21]): 20 | Barnyardgrass plant response rating (barnyardgrass [9]; [18]): 40 | Plant response rating, Barnyardgrass (barnyardgrass [9]; [22]): 100 | Crabgrass, Large plant response rating (large (Lg) crabgrass [10]; [18]): 70 | Plant response rating, Crabgrass, Large (large (Lg) crabgrass [10]; [22]): 90 | Foxtail, Giant plant response rating (giant foxtail [11]; [18]): 70 | Plant response rating, Foxtail, Giant (giant foxtail [11]; [22]): 90 | Morningglory plant response rating (morningglory [12]; [18]): 50 | Plant response rating, Morningglory (morningglory [12]; [22]): 90 | Pigweed plant response rating (pigweed [13]; [18]): 100 | Plant response rating, Pigweed (pigweed [13]; [22]): 100 | Velvetleaf plant response rating (velvetleaf [14]; [18]): 100 | Plant response rating, Velvetleaf (velvetleaf [14]; [22]): 100 | Wheat plant response rating (wheat [15]; [18]): 0 | Plant response rating, Wheat (wheat [15]; [22]): 70 | Corn plant response rating (corn [16]; [18]): 30 | Plant response rating, Corn (corn [16]; [22]): 70 | Plant response rating, Rice (rice): 0 | Plant response rating, Sedge, Umbrella (sedge, umbrella): 60 | Plant response rating, Ducksalad (Heteranthera limosa): 75 | Plant response rating, Barnyardgrass (barnyardgrass [17]): 30
